Experimental findings from patent US20180303830A1, “CANCERS EXPRESSING CCR5 AND METHODS OF TREATMENT OF SAME” (THOMAS JEFFERSON UNIVERSITY, priority 2015, published 2018) are described below.

Experiment [1] has as its system FC-IBC-02 cells. The experiment in a line: Boyden chamber migration and invasion assay in FC-IBC-02 cells. In kind it is cell-based, human. The settings on record: 100 μM, 48 hrs, compared to control; for invasion of FC-IBC-02 cells: matrigel-coated membrane; for migration of FC-IBC-02 cells: noncoated membrane. How it is done: The effects of CCR5 antagonists (Maraviroc and Vicriviroc) on cell migration and invasion in vitro were examined using matrigel-coated Boyden chamber assay in FC-IBC-02 cells, which are triple-negative, basal-like, cancer stem cell phenotype, and rapidly developed primary tumors and metastasis in vivo. Cells were treated by Maraviroc and Vicriviroc at 100 μM and support the conclusion that CCR5 is highly expressed in basal-like human IBC cells.
In FIG. 3, CCR5 antagonists Maraviroc and Vicriviroc suppress the migration and invasion of FC-IBC-02 cells. FIGS. 3A and 3B depict control and CCR5 antagonists treated cells at equal number were seeded onto the noncoated membrane (migration) and matrigel-coated membrane (invasion). After incubating 48 hrs. the cells crossed the membrane were stained with 0.05% crystal violet. FIGS. 3C and 3D, quantitation of 3A and 3B compared to controls was indicated.

The test system of experiment [2] is SUM159 cells. The experiment in a line: Lung metastasis of SUM159 cells in SCID mice, photon flux (IVIS). Type of experiment: in vivo. The text has this: The CCR5 antagonist, Maraviroc, was previously approved by the US Food and Drug Administration (FDA) for the use in treatment-nave adult […] with CCR5-trophic HIV. In order to determine the role endogenous CCR5 within SUM159 cells in lung metastasis, cells were introduced into SCID immune deficient mice, and tumor volume characterized using the IVIS system. […] (p<0.0001).
FIG. 7. Endogenous CCR5 promotes lung metastases in mice. FIG. 7A Representative timed photon emission of mice injected with SUM159 cells treated with either control or Maraviroc (at 14 mg/kg mouse body, time as shown in weeks). FIG. 7B Mean±SEM of photon flux for 6 animals in control group and 7 animals in maraviroc treatment group shown in 5 weeks. Maraviroc treatment reduces mean lung tumor volume by 98% which detected by photon flux ((3.01±1.16)×10^7 vs (1.05±0.44)×10^8, p=0.063 with Mann-Whitney Test).

In experiment [3] the test system is SUM159 cells. The experiment can be described thus: Phospho-γH2AX Western-blot of doxorubicin induced DNA damage in SUM159 cells. Type of experiment: cell-based, human. To be noted: for doxorubicin induced phospho-γH2AX (DNA damage): 100 μM, SUM159 cells, doxorubicin treatment; for effect on CCR5-mediated DNA repair (phospho-γH2AX western-blot and DNA repair reporter assay): breast cancer cells overexpressing CCR5, doxorubicin and γ-radiation induced DNA damage. The text has this: The chemokine receptor CCR5 is normally expressed on the surface of immune cells and served as HIV co-receptor. […] Compared with CCR5− cells, the CCR5+ cells were enriched with DNA damage/repair gene signature. […] Based on the existing theory that the resistance of cancer cells to the chemotherapy and radiation therapy caused by the existence of cancer stem cells, the inhibition of CCR5 by CCR5 antagonists will sensitize the response of breast cancer cells to chemotherapy and radiation therapy, therefore increase the efficiency of DNA damage inducing chemotherapy treatment for CCR5 expressing cancers.
FIG. 9. […] FIG. 9A The CCR5 stable-transfected and vector-control SUM159 cells were illuminated with 6.5 Gy of γ-radiation. The samples were collected at 0.5, 3 and 24 hours after y-radiation. The recruitment of phosphor-γH2AX and the reduction of abundance were faster in CCR5-transfected cells than vector-control cells. FIG. 9B The CCR5 stable-transfected and vector-control SUM159 cells were treated with doxorubicin. […] FIG. 9C CCR5 antagonist increased DNA damage in SUM159 cells. SUM159 cells treated with CCR5 antagonist, Maraviroc and Vicriviroc, both at 100 μM. DNA damage was induced by doxorubicin treatment. There are more doxorubicin induced phospho-γH2AX in Marviroc and Vicriviroc treated groups.
A general note: A reporter such as luciferase makes a cellular process visible.

For experiment [4], the system named is basal-like breast cancer model. The experiment can be described thus: In vivo metastasis in a basal-like breast cancer model. The arrangement: species or system mice. The text has this: Chemokine CCL5 and its receptor CCR5 play a significant role in cancer progression and metastasis. Metastasis is the primary cause of death in patients with breast cancer. No effective treatments currently exist that are directed specifically to the metastatic process. There is evidence that the CCR5 receptor is expressed in a subset of human breast cancers. Importantly, embodiments disclosed herein support that CCR5 inhibitors previously developed and FDA approved for treatment of HIV, can effectively block breast cancer metastasis in preclinical models, thereby providing for an effective treatment of said metastatic breast cancers. The repurposing of drugs for alternative use in cancer metastasis, drugs that were previously approved by the FDA, may provide a more rapid solution for this deadly disease. Indeed, CCR5 inhibition by the FDA approved CCR5 antagonists Maraviroc and Vicriviroc reduced in vivo metastasis in a basal-like breast cancer model.
Indeed, in studies described herein, CCR5 is sufficient to induce invasiveness of breast cancer cells into matrigel, and metastasis to the lungs of mice. Accordingly, two distinct CCR5 inhibitors, maraviroc and vicriviroc, blocked CCR5 signaling and thereby block migration, invasion and metastasis in mice. […] The dose of CCR5 inhibitor used in these mouse models was the same as the dose used in patients for HIV.

Turning to `Cc1nnc(C(C)C)n1[C@@H]1C[C@H]2CC[C@@H](C1)N2CC[C@H](NC(=O)C1CCC(F)(F)CC1)c1ccccc1` [Maraviroc, 4,4-difluoro-N-{(1S)-3-[3-(3-isopropyl-5-methyl-4H-1,2,4-triazol-4-yl)-8-azabicyclo[3.2.1]oct-8-yl]-1-phenylpropyl}cyclohexanecarboxamide], in experiment [1], the “invasion of FC-IBC-02 cells” value is reported as “suppress” and the “migration of FC-IBC-02 cells” value is listed as “suppress”. The “photon flux, Mean±SEM” value in experiment [2] (14 mg/kg, 5 weeks, 7 animals, p=0.063 Mann-Whitney vs control) is listed as “(3.01±1.16)×10^7”. Besides, in experiment [2] (14 mg/kg, 5 weeks, vs control), the “reduction of mean lung tumor volume detected by photon flux” value was found to be 98%. In addition, the “increase in breast cancer lung metastases (photon flux) in the control group compared to the treated group” value in experiment [2] (SUM159 cells in SCID mice, administered orally) is recorded as 15 fold. Moreover, in experiment [2] (SUM159 cells in SCID mice, administered orally, p<0.0001), the “percentage of mice with detectable lung metastases” value is “significantly reduced”. Further, in experiment [3], the “doxorubicin induced phospho-γH2AX (DNA damage)” value was “more”; the “effect on CCR5-mediated DNA repair (phospho-γH2AX western-blot and DNA repair reporter assay)” value was “abolished these effects”. Further, in experiment [4], the in vivo metastasis result is recorded as “reduced”.

Turning to `COCC(c1ccc(C(F)(F)F)cc1)N1CCN(C2(C)CCN(C(=O)c3c(C)ncnc3C)CC2)C[C@@H]1C` (stereo partly drawn) [Vicriviroc, 5-({4-[(3S)-4-{2-methoxy-1-[4-(trifluoromethyl)phenyl]ethyl}-3-methylpiperazin-1-yl]-4-methylpiperidin-1-yl}carbonyl)-4,6-dimethylpyrimidine], in experiment [1], the “invasion of FC-IBC-02 cells” value is given as “suppress” and the “migration of FC-IBC-02 cells” value is “suppress”. In experiment [3], the “doxorubicin induced phospho-γH2AX (DNA damage)” value is “more”; the “effect on CCR5-mediated DNA repair (phospho-γH2AX western-blot and DNA repair reporter assay)” value was “abolished these effects”. Also, the in vivo metastasis entry in experiment [4] is “reduced”.
